# Patent US9238005B2, “Dry powder formulations and methods for treating pulmonary diseases” (Pulmatrix Operating Company, Inc., priority 2009, dated 2016)
# Assays:
# [1] = Dispersibility from passive dry powder inhalers (CEPM, Dv50, FPF vs inhalation energy); format: physicochemical; conditions: for average CEPM, share of capsule fill weight: 9.2 Joules (60 L/min for 2 L); for average Dv50: 9.2 Joules; for Dv50: measured lower energies
# Method: The dispersibility of various powder formulations was investigated by measuring the geometric particle size and the percentage of powder emitted from capsules when inhaling on dry powder inhalers with flow rates representative of patient use. The particle size distribution and weight change of the filled capsules were measured for multiple powder formulations as a function of flow rate, inhaled volume and fill weight in 2 passive dry powder inhalers.
# In order to relate the dispersion of powder at different flow rates, volumes, and from inhalers of different resistances, the energy required to perform the inhalation maneuver was calculated and the particle size and dose emission data plotted against the inhalation energy. Inhalation energy was calculated as E=R^2Q^2V where E is the inhalation energy in Joules, R is the inhaler resistance in kPa^1/2/LPM, Q is the steady flow rate in L/min and V is the inhaled air volume in L.
# [2] = Heat of solution in HBSS buffer; format: physicochemical; conditions: Avg.; for ΔH (kJ/mol) / ΔH (kcal/mol): HBSS buffer, per mol Ca, leucine per mol Leu; for Q / ΔT (deg. C): dissolution in HBSS buffer
# [3] = Volume median geometric diameter (x50/VMGD) and GSD by laser diffraction, HELOS/RODOS; format: physicochemical
# Method: Volume median diameter (×50), which may also be referred to as volume median geometric diameter (VMGD), was determined using a laser diffraction technique. […] The RODOS disperser applies a shear force to a sample of particles, controlled by the regulator pressure (typically set at 1.0 bar with orifice ring pressure set at 7 mbar) of the incoming compressed dry air. […] The dispersed particles travel through a laser beam where the resulting diffracted light pattern produced is collected, typically using an R2 lens, by a series of detectors.
# [4] = Fine particle fraction, two-stage collapsed Andersen Cascade Impactor (ACI-2); conditions: spray dried from 70% ethanol, 50 g/L
# [5] = high resistance RS-01, 25 mg fill weight
# [6] = high resistance RS-01, 40 mg fill weight
# [7] = RS.01.HR, fill 25 mg, 15 LPM, 4 s, 0.29 J
# [8] = RS.01.HR, fill 25 mg, 20 LPM, 3 s, 0.51 J
# [9] = RS.01.HR, fill 25 mg, 30 LPM, 2 s, 1.15 J
# [10] = RS.01.HR, fill 25 mg, 60 LPM, 2 s, 9.18 J
# [11] = RS.01.HR, fill 40 mg, 15 LPM, 4 s, 0.29 J
# [12] = RS.01.HR, fill 40 mg, 20 LPM, 3 s, 0.51 J
# [13] = RS.01.HR, fill 40 mg, 30 LPM, 2 s, 1.15 J
# [14] = RS.01.HR, fill 40 mg, 60 LPM, 2 s, 9.18 J
# [15] = RS.01.LR, fill 25 mg, 60 LPM, 2 s, 2.85 J
# [16] = RS.01.LR, fill 40 mg, 60 LPM, 2 s, 2.85 J
# [17] = all measured lower energies (<9.2 Joules), 25 and 40 mg fill weights
compound,measurement,setting,value
albuterol sulfate [Micronized Albuterol 073-001-02-039A],"average CEPM, share of capsule fill weight",[1]; [5],93%
same,"average CEPM, share of capsule fill weight",[1]; [6],84%
same,average Dv50,[1]; [5],1.8 μm
same,average Dv50,[1]; [6],1.6 μm
same,Mean CEPM,[1]; [7],3.12 mg
same,Mean Dv50,[1]; [7],16.76 μm
same,"Mean FPF, % < 5 μm",[1]; [7],13.00%
same,Mean CEPM,[1]; [8],5.00 mg
same,Mean Dv50,[1]; [8],8.40 μm
same,"Mean FPF, % < 5 μm",[1]; [8],32.10%
same,Mean CEPM,[1]; [9],7.08 mg
same,Mean Dv50,[1]; [9],3.86 μm
same,"Mean FPF, % < 5 μm",[1]; [9],59.44%
same,Mean CEPM,[1]; [10],23.18 mg
same,Mean Dv50,[1]; [10],1.77 μm
same,"Mean FPF, % < 5 μm",[1]; [10],81.65%
same,Mean CEPM,[1]; [11],2.43 mg
same,Mean Dv50,[1]; [11],17.63 μm
same,"Mean FPF, % < 5 μm",[1]; [11],10.73%
same,Mean CEPM,[1]; [12],4.97 mg
same,Mean Dv50,[1]; [12],6.34 μm
same,"Mean FPF, % < 5 μm",[1]; [12],42.24%
same,Mean CEPM,[1]; [13],8.55 mg
same,Mean Dv50,[1]; [13],3.13 μm
same,"Mean FPF, % < 5 μm",[1]; [13],67.18%
same,Mean CEPM,[1]; [14],33.40 mg
same,Mean Dv50,[1]; [14],1.60 μm
same,"Mean FPF, % < 5 μm",[1]; [14],84.30%
same,Mean CEPM,[1]; [15],15.28 mg
same,Mean Dv50,[1]; [15],2.57 μm
same,"Mean FPF, % < 5 μm",[1]; [15],75.01%
same,Mean CEPM,[1]; [16],18.88 mg
same,Mean Dv50,[1]; [16],2.62 μm
same,"Mean FPF, % < 5 μm",[1]; [16],73.98%
same,CEPM,[1]; [17],below 10 mg
same,"CEPM, share of capsule fill weight",[1]; [17],< 30%
same,Dv50,[1]; 25 mg fill weight,3.9 μm
same,Dv50,[1]; 40 mg fill weight,3.1 μm
CC(C)C[C@H](N)C(=O)O [Leucine],ΔH (kJ/mol),[2],-6 kJ/mol
same,ΔH (kcal/mol),[2],-1.5 kcal/mol
same,Q,[2],0.37 cal
same,ΔT (deg. C),[2],0.003 deg. C
O.O.[Ca+2].[Cl-].[Cl-] [CaCl2.2H2O],ΔH (kJ/mol),[2],-50.6 kJ/mol
same,ΔH (kcal/mol),[2],-12.1 kcal/mol
same,Q,[2],2.93 cal
same,ΔT (deg. C),[2],0.024 deg. C
"[Cl-].[Cl-].[Mg+2] [Pure magnesium chloride, magnesium chloride]",median volume particle size,"[3]; spray dried from 70% ethanol, 50 g/L",4 microns
same,median particle size (HELOS/RODOS),"[3]; spray dried from D.I. water, 20 g/L",21 microns
same,fine particle fraction less than 5.6 microns,[4],19%
